Measurements from article PMC8467576, “Novel Ubiquitin Specific Protease-13 Inhibitors Alleviate Neurodegenerative Pathology” (Metabolites, 2021).

Columns and labels:
human alpha-synuclein = assay: Human alpha-synuclein ELISA in transfected SH-SY5Y cells; type: cell-based; conditions: 5 h, at 1 mM and 100 µM
Description: Stably transfected human neuroblastoma SH-SY5Y cells with human wild-type alpha-synuclein were treated with 1 mM, 100 µM, 10 µM, 1 µM, 0.1 µM, 0.01 µM and 0.001 µM of each of BK50118-A, BK50118-B, BK50118-C, CL3-499, CL3-512 and CL3-514 dissolved in an equivalent volume of DMSO for 5 h. […] The other 5 compounds were also able to lower alpha-synuclein levels but with less potency (Figure 3H,I,K–M).
SH-SY5Y cells were transiently transfected for 24 h with human wild-type α-synuclein using Fugene HD transfection reagent (Promega, E2311, Madison, WI, USA) according to manufacturer’s protocol. Cells were treated with 1 mM, 0.1 mM, 0.01 mM, 1 µM, 0.1 µM, 0.01 µM and 0.001 µM of each novel compounds (BK50118-A, BK50118-B, BK50118-C, CL3-499, CL3-512 and CL3-514) dissolved in DMSO for 5 h. […] Cell viability was determined via lactate dehydrogenase assay on culture media (Thermofisher, 88954) and MTT assay on plated cells (Thermofisher, V13154). […]

[1] = tested on: alpha-synuclein ubiquitination; assay: Alpha-synuclein ubiquitination in TgA53T mice (IP/WB, co-localization immunostaining); type: in vivo, mouse
Description: Male and female TgA53T mice (15 months old) were treated daily with intraperitoneal injection of DMSO versus 10 mg/kg or 40 mg/kg BK50118-C for 7 days. […] ELISA measurement of alpha-synuclein in the same extracts (Figure 4C) confirmed that human alpha-synuclein was reduced by about 30% (10 mg/kg) and 56% (40 mg/kg), respectively (Figure 4C).
To ascertain the mechanistic effects of BK50118-C on alpha-synuclein clearance, we performed immunostaining in striatum of TgA53T mice. […] We also performed the staining of tyrosine hydroxylase (TH) in the striatum of TgA53T mice. TH is the enzyme responsible for catalyzing the rate limiting step in synthesis of L-3,4-dihydroxyphenylalanine(L-DOPA) which is a precursor for dopamine (DA). Staining of TH will help to evaluate the status of DA producing neurons in the SN and their terminals in the striatum.
BK50118-C is one of novel small molecule inhibitors of USP13 synthesized in our laboratory. For BK50118-C treatment, approximately 15 months old (±1 month) male and female TgA53T mice were treated with intraperitoneal injection of vehicle (DMSO) or BK50118-C at the daily dosage of 10 mg/Kg or 40 mg/Kg for 7 days. […]
Mouse brain tissues were homogenized in 1x STEN buffer, and the soluble fraction was isolated as indicated above. […] The supernatant was recovered and quantified by protein assay, and a total of 300 µg protein was incubated overnight at 4 °C with primary anti-alpha-synuclein (1:200, Thermofisher, AHB0261) mouse antibodies or anti-ubiquitin (1:100) (Thermo Fisher, PA3–16717, Rockford, IL, USA) antibodies in the presence of sepharose G and an IgG control with primary antibodies. […]
Immunohistochemistry was performed on the 20 µm thick brain sections for evaluation of ubiquitination of alpha-synuclein. […] The optic densitometry of co-localization of ubiquitin with alpha-synuclein was measured using Image J. Tyrosine hydroxylase (TH) is the limiting enzyme in DA synthesis, so probing for TH+ neurons will help to evaluate the status of DA producing neurons in the SN and their terminals in the striatum. […]

[2] = midbrain extracts, 40 mg/kg vs DMSO and 10 mg/kg, 7 days

Question: With `Fc1ccc2nccc(OCc3ccccc3)c2c1` [BK50118-C, 4-benzyloxy-6-fluoroquinoline] as the compound, how does the “alpha-synuclein levels (ELISA)” value (human alpha-synuclein) read?
Answer: The value was “almost complete alpha-synuclein clearance”.

Question: And the “ubiquitination after immunoprecipitation of alpha-synuclein followed by ubiquitin WB” value [1, 2]?
Answer: The value was “increased ubiquitination”.

Question: And the “ubiquitination of alpha-synuclein after immunoprecipitation of ubiquitin followed by alpha-synuclein WB” value [1, 2]?
Answer: Its value is “increased ubiquitination of alpha-synuclein”.

Question: What about the “increase in alpha-synuclein-ubiquitin co-localization (optic density)” value ([1]; striatum, 40 mg/Kg I.P. daily for 7 days, vs DMSO) of the same compound?
Answer: Its value is 130%.
